Laboratory results from patent US20250135009A1, “INTRATYMPANIC DRUG CONTROLLED RELEASE-TYPE FORMULATION COMPRISING N-ACYLATED GLYCOL CHITOSAN” (The Industry & Academic Cooperation in Chungnam National …, priority 2021, published 2025).
Converted amounts (≈) assume the structure as drawn.

Tests used:
[1] = physchem
Experimental: Changes in water solubility of dexamethasone (DEX) with changes in HGC concentration were analyzed. An excessive amount of DEX was added to 3 mL of an aqueous solution of HGC (PBS, HGC concentration=0 to 4%, w/v). The samples were then stirred for 30 minutes and incubated in a shaking water bath (100 rpm, 37° C.) for 24 hours. All the samples were filtered through a syringe filter (0.8 μm) to remove precipitates and then analyzed using a UV-visible spectrophotometer (V-730, JASCO, Korea). The solubility value of DEX was determined using a standard curve of various DEX concentrations obtained at 242 nm. The test was repeated three times.

[2] = In vitro drug release in PBS using a dialysis membrane; format: physicochemical; conditions: HGC 3.0 wt %, drug 2.0 wt % formulations and drug controls
Experimental: The in vitro drug release profiles of the thermogel formulations were examined in PBS (pH 7.4) using a dialysis membrane. […] Then, the dialysis bags were immersed in 50 mL of PBS and incubated in a shaking water bath (SI-600R, Jeio Tech, Seoul, Korea) at 37° C. and 100 rpm or less.
After incubation, 10 ml of the release medium was taken out and the same amount of fresh medium was added again. The collected samples were analyzed by UV-Vis measurement. The DEX release profile was determined by measuring the UV absorbance of DEX at 242 nm. The experiment was performed in triplicate and data are expressed as mean±SD.
023 microspheres loaded with dexamethasone were mixed with 4 wt % of HGC hydrogel. An in vitro drug release test was conducted in a PBS (pH 7.4, 50 ml) environment in the same manner as in Example 4. Sampling was performed at days 0, 0.5, 1, 2, 4, 7, 14, 21, 28, and 30.
Dexamethasone-loaded 061 or 062 microspheres were mixed with 4 wt % of HGC hydrogel, and an in vitro drug release test therefor was conducted in the same manner as the test for the 023.

Row | Compound | increase of solubility of dexamethasone [1] | solubility at 24 h ([1]; 37 °C, aqueous with cosolvent or surfactant or cyclodextrin, thermodynamic from solid) [µg/mL] | solubility of dexamethasone in PBS ([1]; HGC 0 wt %, 37° C., 24 hours) [µg/mL] | drug release behavior (Example 8-2) [2]
1 | C[C@@H]1C[C@H]2[C@@H]3CCC4=CC(=O)C=C[C@]4(C)[C@@]3(F)[C@@H](O)C[C@]2(C)[C@@]1(O)C(=O)CO [DEX, Dexamethasone] | about 4 times | 221 (≈ 563 µM) | 64 | –
2 | C[C@@H]1C[C@H]2[C@@H]3CCC4=CC(=O)C=C[C@]4(C)[C@@]3(F)[C@@H](O)C[C@]2(C)[C@@]1(O)C(=O)COP(=O)([O-])[O-].[Na+].[Na+] [DSP, DEX phosphate disodium salt] | – | – | – | completely released the drug quickly within a few hours
